In patent US6528042B1, “Compositions of flavonoids for use as cytoprotectants and methods of making and using them” (Galileo Laboratories, Inc., priority 1999, dated 2003):

Legend:
[1] = system: Oxidatively competent cells; test: SYTOX cell death assay in oxidatively competent cells treated with antimycin A; format: cell-based; conditions: for cell death when tested individually: highest concentration tested
Experimental: Oxidatively competent cells are prepared as described in Example 1. and Example 2.A and are seeded onto 96-well plates at 1×10^3/well or 2.5×10^3/well as passage 15. The cells are grown in DMEM with 10% FBS and 1.5 g/L sodium bicarbonate for 24 or 48 hours to reach 85% confluence. The cells are washed once with HBSS and then 100 μl of HBSS containing different concentration of AA (Sigma, Cat #A 8674) is added to the cells. AA is dissolved in DMSO to make a stock solution of 50 mM, then diluted with HBSS to 25, 12.5, 6.25, 3.125, and 1.56 μM for dose-response curves. The cells, with or without AA, are incubated at 37° C. in a 5% CO2 humidified incubator for 1 to 5 hours. The concentration of AA is chosen to induce 75% or 100% cell death as a screening dose to test the effect of agents to protect against AA- induced cell toxicity. The concentration of agents used for screening will be dependent upon the agents. Certain control groups contain 100 μl of HBSS only.
(§1) SYTOX Green nucleic acid stain is a high-affinity nucleic acid stain that easily penetrates cells with a compromised plasma membrane but will not cross the membrane of live cells. The nucleic acids of dead cells fluoresce bright green at 524 nm when excited with the 488 nm spectral source or with any other 450-500 nm source. […] In the cell viability assay chemical ischemia is created in cells and then cells are incubated with the SYTOX dye. The compound antimycin is used to simulate ischemia at the same time as stimulating the cells with forskolin. […] The assay is performed on cells grown in 96-well format allowing high throughput screening of compounds.
(§2) Compound(s) are mixed with the 1 μM SYTOX working solution and added to the washed cell culture wells. Fluorescence is measured at designated time points (488 nm excitation and 530 nm emission). All of the sample readings subtract the background readings, which is cell-free wells only containing HBSS buffer with SYTOX green dye. The data is compared to non-treated cells (control) and is expressed as mean±S.D. from 4 culture wells. SYTOX Green fluorescence units obtained from each group are corrected for basal fluorescence (cell-free wells with only HBSS and fluorescence reagent). Data are represented as mean±SD. A paired t-test is performed comparing treated groups (Toxin+Agent) with non-treated groups (Toxin only) after subtracting the control groups (HBSS only) for each data set. Comparisons among groups are statistically evaluated by two-tailed t-test (Graphpad Prism Software, version 2.0). Differences are considered significant at P<0.05.
Oxidatively competent cells were treated simultaneously with hesperetin, chrysin and 100 nM antimycin A2.C. The cells were treated with various low concentrations of hesperetin and various concentrations of chrysin (Sigma Chemical Co., cat. #C3018). Hesperetin, chrysin and antimycin A were mixed together before treating the cells. Cell viability was measured at time points up to 5 hours using SYTOX, as described in Example 2.F.
In experiments carried out in support of the invention, various concentrations of diosmin and alpha-tocopherol were tested for synergistic ability to ameliorate disruption of energy metabolism secondary to stress. Oxidatively competent cells were treated simultaneously with diosmin, alpha-tocopherol and antimycin A2.C. The cells were treated with various low concentrations of diosmin (Sigma Chemical Co., cat. #D3525) and various low concentrations of (+/−) alpha-tocopherol. Diosmin, alpha-tocopherol and antimycin were mixed together before treating cells. Cell viability was measured 4 hours after treatment using SYTOX. […] Likewise, the combination of disomin (11-100 μM) with 1.1 μg/ml (+/−) alpha tocopherol was synergistic. […] Diosmin alone provided no protection at a concentration of 100 μM. […] A combination of 100 μM diosmin and 11 μg/ml (+/−) alpha tocopherol was also synergistic. […]

GCL1 cells = test: SYTOX cell death assay in GCL1 cells treated with antimycin A (chemical ischemia); format: cell-based, rat hepatoma cells (fao) / human fibroblasts (W138) hybrid; conditions: for reduction in cell death: control 82.9%
From the text: At greater than 80% confluence, more than 80% of the cells participate in forming one or more phaselucent, spherical structures that are located between cells, termed bile canicular-like spaces. In contrast to the majority of cell lines maintained in culture which are fermentative, GCL1 cells, when at their maximal density and polarity, are highly oxidative (i.e., they can be readily killed by inhibitors of oxidative phosphorylation or electron transport uncouplers). […] These cells are amenable to use in high throughput screening (HTS) technology.
The cells, with or without AA, are incubated at 37° C. in a 5% CO2 humidified incubator for 1 to 5 hours. […] The concentration of agents used for screening will be dependent upon the agents. Certain control groups contain 100 μl of HBSS only.
as §1
Aliquot at 100 μl. This 10 mM stock is then diluted to 1 mM with DMSO and aliquoted at 25 μL. Both the 10 mM and the 1 mM are stored at −20° C. until use. […] Aliquot at 100 μl and store at −20° C. until use. iv.) HBSS-SYTOX-FORSKOLIN-ANTIMYCIN (H-S-F-A) solution: H-S-F-A solution is made up fresh prior to each assay in sterile 175 ml or 225 ml Falcon bottles. […]
Cells are grown in 96-well black plates (with or without clear bottoms) at a density of 1000 cells per well for 24 hours. The necessary number of 96-well plates containing the specific cell type are obtained and placed in the laminar flow safety cabinet. A sterile microtiter basin is filled with the appropriate volume of pre-warmed 1×HBSS. Using aseptic technique and an 8-channel aspirator, the media is carefully removed from the cells and replaced with 200 μl of 1×HBSS. This is done as quickly as possible to prevent the cells drying out. The plates are then placed in the humidified 37° C. incubators of the Biomek 2000 Side Loader. Four plates are washed at a time so as to minimize the time that the cells are sitting in 1×HBSS prior to addition of the H-S-A-compound test solution.
as §2
Hesperetin, diosmin, luteolin and quercetin were tested individually for their ability to counteract disruptions of normal energy metabolism. Flavonoids were commercially obtained, generally from Sigma Chemical Co., St. Louis, Mo., and/or Aldrich Chemical Co., Milwaukee, Wis.

[2] = cited from earlier work; for abnormalities observed for a week: administered orally to mice at 100 mg/kg (U.S. Pat. No. 5,650,433)
[3] = flavonoid 25 μM, antimycin A 100 nM, 4 hours
[4] = flavonoid 50 μM, antimycin A 100 nM, 4 hours
[5] = flavonoid 100 μM, antimycin A 100 nM, 4 hours
[6] = flavonoid 200 μM, antimycin A 100 nM, 4 hours
[7] = flavonoid 400 μM, antimycin A 100 nM, 4 hours

Q: Which protection ([1]; 10 μg/ml (+/−) alpha-tocopherol by itself) does the source give for `Cc1c(C)c2c(c(C)c1O)CCC(C)(CCCC(C)CCCC(C)CCCC(C)C)O2` (racemic) [(+/−) alpha-tocopherol, 2,5,7,8-tetramethyl-2-(4′,8′,12′-trimethyltridecyl)-6-chromanol] here?
A: about 15%

Q: What about the “cell death when tested individually” value [1] of the same compound?
A: over half of the cells died

Q: With `Cc1c(C)c2c(c(C)c1O)CC[C@@](C)(CCC[C@H](C)CCC[C@H](C)CCCC(C)C)O2` (relative stereo) [alpha-tocopherol, [2R-2R*(4R*,8R*)]-3,4-dihydro-2,5,7,8-tetramethyl-2-(4,8,12-trimethyltridecyl)-2H-1-benzopyran-6-ol] as the compound, how does the “cell death when tested individually” value [1] read?
A: about half of the cells died

Q: With `COc1ccc(-c2cc(=O)c3c(O)cc(O[C@@H]4O[C@H](CO[C@@H]5O[C@@H](C)[C@H](O)[C@@H](O)[C@H]5O)[C@@H](O)[C@H](O)[C@H]4O)cc3o2)cc1O` [Diosmin, reference compound] as the compound, how does the “protective effect” value (GCL1 cells; concentrations less than 400 μM) read?
A: ineffective

Q: And the “Cell Death” value (GCL1 cells; [3])?
A: 84.1% ± 1.6

Q: And the “Cell Death” value (GCL1 cells; [4])?
A: 84.9% ± 1.6

Q: What about the “Cell Death” value (GCL1 cells; [5]) of the same compound?
A: 85.3% ± 0.6

Q: And the “Cell Death” value (GCL1 cells; [6])?
A: 85.2% ± 2.0

Q: And the “Cell Death” value (GCL1 cells; [7])?
A: 82.5% ± 2.6

Q: What about the “protection” value ([1]; diosmin 3.3-100 μM by itself, 4 hours) of the same compound?
A: not protective by itself

Q: What about the “protection” value ([1]; diosmin alone 100 μM) of the same compound?
A: no protection

Q: And the “protection” value ([1]; diosmin by itself 33-100 μM)?
A: not effective

Q: Which results are given for `O=c1cc(-c2ccc(O)c(O)c2)oc2cc(O)cc(O)c12` [Luteolin, 2-(3,4-Dihydroxyphenyl)-5,7-dihydroxy-4H-1-benzopyran-4-one]?
A: cytoprotective activity (GCL1 cells; concentrations of about 60 μM and above): exhibited cytoprotective activity; Cell Death (GCL1 cells; flavonoid 15.6 μM, antimycin A 100 nM, 4 hours): 78.0% ± 0.9; Cell Death (GCL1 cells; flavonoid 31.25 μM, antimycin A 100 nM, 4 hours): 74.5% ± 1.2; Cell Death (GCL1 cells; flavonoid 62.5 μM, antimycin A 100 nM, 4 hours): 69.0% ± 2.2; Cell Death (GCL1 cells; flavonoid 125 μM, antimycin A 100 nM, 4 hours): 53.7% ± 5.4; Cell Death (GCL1 cells; flavonoid 250 μM, antimycin A 100 nM, 4 hours): 33.4% ± 0.6; abnormalities observed for a week [2]: the same results were reported

Q: What does the source list for `O=c1c(O)c(-c2ccc(O)c(O)c2)oc2cc(O)cc(O)c12` [Quercetin, 2-(3,4-Dihydroxyphenyl)-3,5,7-trihydroxy-4H-1-benzopyran-4-one]?
A: protective activity (GCL1 cells; concentrations of 25 μM and above): protective activity is apparent; Cell Death (GCL1 cells; [3]): 68.1% ± 1.7; Cell Death (GCL1 cells; [4]): 57.1% ± 2.4; Cell Death (GCL1 cells; [5]): 22.0% ± 2.2; Cell Death (GCL1 cells; [6]): 0.0% ± 0.9; Cell Death (GCL1 cells; [7]): 1.0% ± 0.5

Q: With `Nc1ncnc2c1ncn2[C@@H]1O[C@H](CO)[C@@H](O)[C@H]1O` [adenosine, 9-β-D-ribofuranosyl-9H-purin-6-amine] as the compound, how does the protection (GCL1 cells; 11 μM adenosine alone) read?
A: 17.9%

Q: With `COc1ccc(-c2coc3cc(O)cc(O)c3c2=O)cc1` [biochanin A, 5,7-dihydroxy-4′-methoxyiso-flavone] as the compound, how does the “cell death when tested individually” value [1] read?
A: about half of the cells died

Q: With `C[N+](C)(C)CC(O)CC(=O)[O-].O=C(O)C(O)C(O)C(=O)O` (centres unmarked) [carnitine tartate, carnitine tartrate] as the compound, how does the Cell Death (GCL1 cells; 10 mM carnitine tartrate alone, 4 hours, control 97.4%) read?
A: 59.5%

Q: Which Cell Death ([1]; 60 μM chrysin alone, control 72.9%) does the source give for `O=c1cc(-c2ccccc2)oc2cc(O)cc(O)c12` [chrysin, 5,7-dihydroxy-2-phenyl-4H-1-benzopyran-4-one] here?
A: 50.1%

Q: For `O=c1c(-c2ccc(O)cc2)coc2cc(O)ccc12` [daidzein, 7-hydroxy-3-(4-hydroxyphenyl)-4H-1-benzopyran-4-one], which “cell death when tested individually” value [1] is on record?
A: over half of the cells died

Q: Which “protection” value ([1]; gamma-tocopherol 0.03-0.3 μg/ml by itself) does the source give for `Cc1c(O)cc2c(c1C)O[C@](C)(CCC[C@H](C)CCC[C@H](C)CCCC(C)C)CC2` [gamma-tocopherol, 3,4-dihydro-2,7,8-trimethyl-2-(4,8,12-trimethyltridecyl)-2H-1-benzyopyran-6-ol] here?
A: not protective by itself

Q: With `NCC(=O)O` [glycine, aminoacetic acid] as the compound, how does the protection (GCL1 cells; 100 μM glycine alone, 4 hours, control cell death 82.1%) read?
A: 40.8%

Q: For `COc1ccc([C@@H]2CC(=O)c3c(O)cc(O[C@@H]4O[C@H](CO[C@@H]5O[C@@H](C)[C@H](O)[C@@H](O)[C@H]5O)[C@@H](O)[C@H](O)[C@H]4O)cc3O2)cc1O` [hesperidin, (S)-7-[[6O-(6-Deoxy-α-L-mannopyranosyl)-β-D-glucopyranosyl]oxy]-2,3-dihydro-5-hydroxy-2-(3-hydroxy-4-methoxyphenyl)-4H-1-benzopyran-4-one], which “abnormalities observed for a week” value [2] is on record?
A: the same results were reported

Q: What about the toxicity ([2]; orally administered to a mouse at 1000 mg/kg (U.S. Pat. No. 5,763,414)) of the same compound?
A: no toxicity

Q: And the “effects on liver function” value ([2]; tests using mice)?
A: no adverse effects on liver function

Q: And the toxicity or mitogenicity ([2]; tests using mice)?
A: little toxicity or mitogenicity

Q: For `O=C(CO)[C@H](O)[C@H](O)CO` [ribulose], which “reduction in cell death” value (GCL1 cells; 1.25 mM ribulose by itself, 4 hours) is on record?
A: 4.4%

Q: And the “reduction in cell death” value (GCL1 cells; 10 mM ribulose alone, 4 hours)?
A: 26.5%
